Results: ChEMBL document CHEMBL5244281, “Tackling multidrug-resistant Staphylococcus aureus by natural products and their analogues acting as NorA efflux pump inhibitors” (Bioorg Med Chem, 2023)
Converted amounts (≈) assume the structure as drawn.

What was measured:
Staphylococcus aureus [1] = experiment: Antibacterial activity against norfloxacin resistant Staphylococcus aureus IS-58 overexpressing TetK efflux pump gene assessed as bacterial growth inhibition incubated for 18 to 24 hrs by NCCLS protocol based microdilution method; format: functional; details: time 18-24 hrs
Staphylococcus aureus [2] = experiment: Antibacterial activity against norfloxacin resistant Staphylococcus aureus RN4220 overexpressing MsrA efflux pump gene assessed as bacterial growth inhibition incubated for 18 to 24 hrs by NCCLS protocol based microdilution method; format: functional; details: time 18-24 hrs
Staphylococcus aureus [3] = experiment: Antibacterial activity against norfloxacin resistant Staphylococcus aureus 1199B overexpressing NorA efflux pump gene assessed as bacterial growth inhibition incubated for 18 to 24 hrs by NCCLS protocol based microdilution method; format: functional; details: time 18-24 hrs
[4] = target: T1, Quinolone resistance protein NorA (Staphylococcus aureus) (UniProt P0A0J7); experiment: Inhibition of NorA efflux pump in Staphylococcus aureus 1199B overexpressing NorA efflux pump assessed as reduction in EtBr MIC at 128 ug/ml using EtBr as substrate by resazurin based assay (Rvb= 32 ug/ml); details: dose 128.0 µg/ml
T1 sequence (whole entry): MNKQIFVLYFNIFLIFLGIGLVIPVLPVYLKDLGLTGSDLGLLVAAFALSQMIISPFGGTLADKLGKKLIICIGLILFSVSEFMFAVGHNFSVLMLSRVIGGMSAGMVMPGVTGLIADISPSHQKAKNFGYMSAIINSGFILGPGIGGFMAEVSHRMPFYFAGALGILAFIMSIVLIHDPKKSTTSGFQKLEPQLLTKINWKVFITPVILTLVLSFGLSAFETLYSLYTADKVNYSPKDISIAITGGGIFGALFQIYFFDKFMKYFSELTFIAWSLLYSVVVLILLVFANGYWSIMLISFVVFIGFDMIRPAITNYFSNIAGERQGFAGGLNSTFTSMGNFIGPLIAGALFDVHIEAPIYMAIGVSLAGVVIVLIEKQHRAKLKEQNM

Escherichia coli = experiment: Antibacterial activity against Escherichia coli 06 assessed as bacterial growth inhibition incubated for 24 hrs by broth microdilution method; format: functional
Pseudomonas aeruginosa = experiment: Antibacterial activity against Pseudomonas aeruginosa 24 assessed as bacterial growth inhibition incubated for 24 hrs by broth microdilution method; format: functional
Staphylococcus aureus [5] = experiment: Antibacterial activity against Staphylococcus aureus 10 assessed as bacterial growth inhibition incubated for 24 hrs by broth microdilution method; format: functional
Staphylococcus aureus [6] = experiment: Antibacterial activity against Staphylococcus aureus IS-58 overexpressing TetK pump assessed as bacterial growth inhibition incubated for 24 hrs by resazurin based broth dilution method; format: functional
Staphylococcus aureus [7] = experiment: Antibacterial activity against methicillin-resistant Staphylococcus aureus RN4220/pUL5054 overexpressing MsrA efflux pump assessed as bacterial growth inhibition incubated for 24 hrs by resazurin based broth dilution method; format: functional
Staphylococcus aureus [8] = experiment: Antibacterial activity against methicillin-resistant Staphylococcus aureus 1199B overexpressing NorA efflux pump assessed as bacterial growth inhibition incubated for 24 hrs by resazurin based broth dilution method; format: functional
Staphylococcus aureus [9] = experiment: Antibacterial activity against methicillin-resistant Staphylococcus aureus 1199 assessed as bacterial growth inhibition incubated for 24 hrs by resazurin based broth dilution method; format: functional
Staphylococcus aureus [10] = experiment: Potentiation of erythromycin-induced inhibition of MsrA pump in Staphylococcus aureus RN4220/pUL5054 assessed as reduction in erythromycin MIC incubated for 24 hrs by Resazurin based assay (RVB= 645.08 ug/ml)
Staphylococcus aureus [11] = details: IS-58, time 24.0 hrs
[12] = target: T1, Quinolone resistance protein NorA (Staphylococcus aureus); details: 1199B, time 24.0 hrs
Staphylococcus aureus [13] = details: IS-58, time 24.0 hrs; remark: listed apart in the source
[14] = target: T1, Quinolone resistance protein NorA (Staphylococcus aureus); details: 1199B, time 24.0 hrs; remark: listed apart in the source
Staphylococcus aureus [15] = experiment: Antibacterial activity against methicillin-resistant Staphylococcus aureus 1199B overexpressing NorA efflux pump assessed as bacterial growth inhibition incubated for 18 hrs by broth microdilution method; format: functional
Staphylococcus aureus [16] = experiment: Antibacterial activity against methicillin-resistant Staphylococcus aureus RN4220/pUL5054 overexpressing MsrA efflux pump assessed as bacterial growth inhibition incubated for 18 hrs by broth microdilution method; format: functional
Staphylococcus aureus [17] = experiment: Antibacterial activity against gentamicin-resistant Staphylococcus aureus APH2" AAC6 assessed as bacterial growth inhibition incubated for 18 hrs by broth microdilution method; format: functional
Staphylococcus aureus [18] = experiment: Antibacterial activity against kanamycin-resistant Staphylococcus aureus APH3' assessed as bacterial growth inhibition incubated for 18 hrs by broth microdilution method; format: functional
Staphylococcus aureus [19] = experiment: Antibacterial activity against fusidic acid-resistant Staphylococcus aureus APH4' assessed as bacterial growth inhibition incubated for 18 hrs by broth microdilution method; format: functional
Staphylococcus aureus [20] = experiment: Antibacterial activity against Staphylococcus aureus ST239 assessed as bacterial growth inhibition incubated for 18 hrs by broth microdilution method; format: functional
Staphylococcus aureus [21] = experiment: Antibacterial activity against methicillin resistant Staphylococcus aureus clinical isolates assessed as bacterial growth inhibition; format: functional
Staphylococcus aureus [22] = experiment: Synergistic antibacterial activity against methicillin resistant Staphylococcus aureus clinical isolates assessed as fractional inhibitory concentration index in presence of norfloxacin; format: functional
Staphylococcus aureus [23] = experiment: Synergistic antibacterial activity against methicillin resistant Staphylococcus aureus clinical isolates assessed as fractional inhibitory concentration index in presence of ciprofloxacin; format: functional
Staphylococcus aureus [24] = experiment: Synergistic antibacterial activity against methicillin resistant Staphylococcus aureus clinical isolates assessed as fractional inhibitory concentration index in presence of ofloxacin; format: functional
Staphylococcus aureus [25] = experiment: Antibacterial activity against Staphylococcus aureus 1199B overexpressing NorA efflux pump assessed as bacterial growth inhibition incubated for 18 hrs by broth dilution method; format: functional
Staphylococcus aureus [26] = experiment: Antibacterial activity against Staphylococcus aureus K1758 with NorA knockout assessed as bacterial growth inhibition incubated for 18 hrs by broth dilution method; format: functional
[27] = target: T1, Quinolone resistance protein NorA (Staphylococcus aureus); experiment: Inhibition of NorA efflux pump in Staphylococcus aureus 1199B overexpressing NorA efflux pump assessed as decrease in ciprofloxacin MIC at 1/4 times MIC and measured for 45 mins in presence of ciprofloxacin by fluorimetric analysis (Rvb=8 ug/ml)
[28] = target: T1, Quinolone resistance protein NorA (Staphylococcus aureus); experiment: Inhibition of NorA efflux pump in Staphylococcus aureus 1199B overexpressing NorA efflux pump assessed as decrease in norfloxacin MIC at 1/4 times MIC and measured for 45 mins in presence of norfloxacin by fluorimetric analysis (Rvb=32 ug/ml)

**Q.** Which results are given for `COc1c2ccoc2c(OC)c2oc(=O)ccc12` [ISOPIMPINELLIN]?
**A.** MIC (Staphylococcus aureus [1]): > 256 µg/mL; MIC (Staphylococcus aureus [2]): > 256 µg/mL; MIC (Staphylococcus aureus [3]): > 256 µg/mL; MIC [4]: 4 µg/mL

**Q.** Which results are given for `C=C1CC/C=C(\C)CC[C@@H]2[C@@H]1CC2(C)C` [BETA-CARYOPHYLLENE]?
**A.** MIC (Escherichia coli): ≥ 1020 µg/mL; MIC (Pseudomonas aeruginosa): ≥ 1020 µg/mL; MIC (Staphylococcus aureus [5]): 32 µg/mL (≈ 157 µM)

**Q.** With `O=c1c(O)c(-c2ccc(O)c(O)c2)oc2cc(O)cc(O)c12` [QUERCETIN] as the compound, how does the MIC (Staphylococcus aureus [6]) read?
**A.** 512 µg/mL (≈ 1690 µM)

**Q.** And the MIC (Staphylococcus aureus [7])?
**A.** ≥ 1020 µg/mL

**Q.** What about the MIC (Staphylococcus aureus [8]) of the same compound?
**A.** ≥ 1020 µg/mL

**Q.** And the MIC (Staphylococcus aureus [9])?
**A.** ≥ 1020 µg/mL

**Q.** What about the MIC (Staphylococcus aureus [10]) of the same compound?
**A.** 512 µg/mL

**Q.** What about the MIC (Staphylococcus aureus [11]) of the same compound?
**A.** 128 µg/mL (≈ 424 µM)

**Q.** What about the MIC [12] of the same compound?
**A.** 128 µg/mL (≈ 424 µM)

**Q.** What about the MIC (Staphylococcus aureus [13]) of the same compound?
**A.** 12.7 µg/mL (≈ 42 µM)

**Q.** And the MIC [14]?
**A.** 12.7 µg/mL (≈ 42 µM)

**Q.** How did the MIC (Staphylococcus aureus [15]) turn out when `O=c1cc(-c2ccccc2)oc2cc(O)c(O)c(O)c12` [BAICALEIN] was run?
**A.** 128 µg/mL (≈ 474 µM)

**Q.** What about the MIC (Staphylococcus aureus [16]) of the same compound?
**A.** 64 µg/mL (≈ 237 µM)

**Q.** What about the MIC (Staphylococcus aureus [17]) of the same compound?
**A.** 128 µg/mL (≈ 474 µM)

**Q.** And the MIC (Staphylococcus aureus [18])?
**A.** 64 µg/mL (≈ 237 µM)

**Q.** What about the MIC (Staphylococcus aureus [19]) of the same compound?
**A.** 128 µg/mL (≈ 474 µM)

**Q.** And the MIC (Staphylococcus aureus [20])?
**A.** 128 µg/mL (≈ 474 µM)

**Q.** What does the source list for `CC1=CCC[C@@]2(C)[C@@]1(C)CC[C@@H](C)[C@]2(C)CCC1=CC(=O)O[C@@H]1O`?
**A.** MIC (Staphylococcus aureus [21]): 15.6 µg/mL (≈ 47 µM); fractional inhibitory concentration index (FICI) (Staphylococcus aureus [22]): 0.315; fractional inhibitory concentration index (FICI) (Staphylococcus aureus [23]): 0.324; fractional inhibitory concentration index (FICI) (Staphylococcus aureus [24]): 0.324

**Q.** With `O=C(/C=C/c1ccco1)N/N=C/c1ccc(Br)o1` as the compound, how does the MIC (Staphylococcus aureus [25]) read?
**A.** 64 µg/mL (≈ 207 µM)

**Q.** What about the MIC (Staphylococcus aureus [26]) of the same compound?
**A.** 64 µg/mL (≈ 207 µM)

**Q.** And the MIC [27]?
**A.** 0.5 µg/mL

**Q.** And the MIC [28]?
**A.** 1 µg/mL
